In patent publication US20170152239A1, “BENZAMIDE AND HETEROBENZAMIDE COMPOUNDS” (PFIZER INC., priority 2012, published 2017):

Biological target: WT EZH2 (EZH2 4 protein complex: EZH2, EED, SUZ12, RbAp48) (Homo sapiens, UniProt O75530+Q09028+Q15022+Q15910)
Assay: WT EZH2 nucleosome assay
Assay type: biochemical
Settings: nucleosome assay, 5 nM EZH2 4-protein complex, 1.5 μM SAM; read-out: WT EZH2 IC50
Method: Nucleosome Assay Protocol:
A. Compound preparation • 1. Prepare 10 mM stock solutions in 100% DMSO from solid material • 2. Serial dilute 10 mM compound stocks either 2 or 3-fold in 100% DMSO to generate compounds for 11 point dose response
B. Reagent preparation • 1. Prepare 1× assay buffer containing 100 mM Tris pH 8.5, 4 mM DTT and 0.01% Tween-20 • 2. Dilute purified HeLA oligonucleosomes and recombinant histone H1 (New England Biolabs) in assay buffer to 1.67×. • 3. Dilute EZH2 4 protein complex (EZH2, EED, SUZ12, RbAp48) to 3.5× in assay buffer • 4. Prepare 10×^3H SAM solution in assay buffer using 0.94 μCi/well of radioactive SAM (Perkin Elmer) and sufficient non-labeled SAM (Sigma) for 1.5 μM final concentration. • 5. Dilute TCA to 20% in DI water
C. Enzyme reaction • 1. Final reaction conditions are 5 nM EZH2 4-protein complex, 1.5 μM SAM, 25 μg/mL oligonucleosomes, 50 nM rH1 in a 50 μl reaction volume. • 2. Add 1 μl of diluted compound to the assay plate (96-well V-bottom polypropylene plates) or 1 μl of DMSO for control wells. • 3. Add 30 μl of nucleosomes to the assay plate • 4. Add 14 μl of EZH2 4 protein complex to the assay plate • 5. Add 5 μl of ^3H SAM to start the reaction. • 6. Stop the reaction after 60 minutes with the addition of 100 μl of 20% TCA • 7. Transfer 150 μl of quenched reaction into a prepared filterplate (Millipore #MSIPN4B10) • 8. Apply vacuum to the filterplate to filter the reaction mix through the membrane. • 9. Wash the filterplate with 8×200 μl of PBS, blot dry and dry in an oven for 30 minutes • 10. Add 50 μl of microscint-20 scintillation fluid (Perkin Elmer) to each well, wait 30 minutes and count on a liquid scintillation counter.
D. Data analysis • 1. IC50 values were determined by fitting the data to a 4-parameter IC50 equation using proprietary curve fitting software.
Wild type (WT) EZH2% Effect at 20 μM and IC50 values (μM) generated in WT EZH2 or EZH2PRC2 mutant Y641N nucleosome assays are provided in Table 3 below. A blank entry in the table indicates the data was not generated in that assay.

Chain of WT EZH2 (EZH2 4 protein complex: EZH2, EED, SUZ12, RbAp48) (Q15910 whole entry): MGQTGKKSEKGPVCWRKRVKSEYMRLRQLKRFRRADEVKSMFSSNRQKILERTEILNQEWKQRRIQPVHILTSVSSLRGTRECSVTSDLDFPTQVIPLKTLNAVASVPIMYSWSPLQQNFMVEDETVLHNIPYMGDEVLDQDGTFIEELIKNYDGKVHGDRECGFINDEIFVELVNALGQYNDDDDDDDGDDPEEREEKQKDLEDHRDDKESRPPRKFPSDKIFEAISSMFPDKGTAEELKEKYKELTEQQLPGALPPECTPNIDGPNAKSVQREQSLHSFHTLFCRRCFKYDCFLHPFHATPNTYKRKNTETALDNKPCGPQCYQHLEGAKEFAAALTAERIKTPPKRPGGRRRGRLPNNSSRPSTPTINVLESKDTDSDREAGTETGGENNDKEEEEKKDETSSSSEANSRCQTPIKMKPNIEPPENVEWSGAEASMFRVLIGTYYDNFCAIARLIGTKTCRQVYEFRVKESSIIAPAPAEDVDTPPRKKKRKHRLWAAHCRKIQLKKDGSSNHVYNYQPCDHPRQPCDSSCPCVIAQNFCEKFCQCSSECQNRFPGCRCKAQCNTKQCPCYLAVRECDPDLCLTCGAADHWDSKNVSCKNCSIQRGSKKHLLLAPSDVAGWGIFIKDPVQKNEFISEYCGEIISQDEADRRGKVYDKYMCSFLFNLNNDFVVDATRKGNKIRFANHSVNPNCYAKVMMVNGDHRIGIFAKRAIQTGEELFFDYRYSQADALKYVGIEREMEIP
Chain of WT EZH2 (EZH2 4 protein complex: EZH2, EED, SUZ12, RbAp48) (O75530 whole entry partner): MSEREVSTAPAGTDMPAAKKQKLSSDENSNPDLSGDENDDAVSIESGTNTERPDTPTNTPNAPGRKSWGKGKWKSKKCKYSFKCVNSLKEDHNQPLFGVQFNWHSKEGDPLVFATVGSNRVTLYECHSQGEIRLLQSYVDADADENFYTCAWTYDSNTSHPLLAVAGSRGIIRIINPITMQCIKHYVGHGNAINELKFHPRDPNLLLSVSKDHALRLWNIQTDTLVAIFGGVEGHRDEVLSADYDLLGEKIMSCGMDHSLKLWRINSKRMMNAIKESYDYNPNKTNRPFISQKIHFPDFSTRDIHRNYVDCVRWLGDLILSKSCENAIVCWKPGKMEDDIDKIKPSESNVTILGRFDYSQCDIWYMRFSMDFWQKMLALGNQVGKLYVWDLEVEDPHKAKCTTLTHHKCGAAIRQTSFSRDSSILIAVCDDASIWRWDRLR
Chain of WT EZH2 (EZH2 4 protein complex: EZH2, EED, SUZ12, RbAp48) (Q15022 whole entry partner): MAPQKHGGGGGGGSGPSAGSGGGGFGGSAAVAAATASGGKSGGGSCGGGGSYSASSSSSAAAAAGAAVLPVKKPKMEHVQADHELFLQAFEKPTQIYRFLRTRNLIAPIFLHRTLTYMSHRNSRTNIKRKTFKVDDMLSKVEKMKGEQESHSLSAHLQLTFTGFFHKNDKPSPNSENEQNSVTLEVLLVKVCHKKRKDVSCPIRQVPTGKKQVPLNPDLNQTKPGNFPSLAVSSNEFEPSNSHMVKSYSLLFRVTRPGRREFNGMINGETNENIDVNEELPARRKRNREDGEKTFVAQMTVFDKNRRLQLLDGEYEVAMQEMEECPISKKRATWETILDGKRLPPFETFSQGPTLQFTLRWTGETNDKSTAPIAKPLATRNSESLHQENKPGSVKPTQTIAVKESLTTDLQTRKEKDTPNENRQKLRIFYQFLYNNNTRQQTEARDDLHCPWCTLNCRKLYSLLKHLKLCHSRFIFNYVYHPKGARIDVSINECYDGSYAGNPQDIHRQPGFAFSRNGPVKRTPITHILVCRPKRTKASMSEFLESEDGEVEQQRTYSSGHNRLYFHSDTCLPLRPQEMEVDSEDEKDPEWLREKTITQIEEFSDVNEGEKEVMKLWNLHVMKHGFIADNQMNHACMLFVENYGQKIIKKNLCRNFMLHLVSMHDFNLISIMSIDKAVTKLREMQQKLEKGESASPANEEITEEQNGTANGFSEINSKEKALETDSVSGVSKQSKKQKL
Chain of WT EZH2 (EZH2 4 protein complex: EZH2, EED, SUZ12, RbAp48) (Q09028 whole entry partner): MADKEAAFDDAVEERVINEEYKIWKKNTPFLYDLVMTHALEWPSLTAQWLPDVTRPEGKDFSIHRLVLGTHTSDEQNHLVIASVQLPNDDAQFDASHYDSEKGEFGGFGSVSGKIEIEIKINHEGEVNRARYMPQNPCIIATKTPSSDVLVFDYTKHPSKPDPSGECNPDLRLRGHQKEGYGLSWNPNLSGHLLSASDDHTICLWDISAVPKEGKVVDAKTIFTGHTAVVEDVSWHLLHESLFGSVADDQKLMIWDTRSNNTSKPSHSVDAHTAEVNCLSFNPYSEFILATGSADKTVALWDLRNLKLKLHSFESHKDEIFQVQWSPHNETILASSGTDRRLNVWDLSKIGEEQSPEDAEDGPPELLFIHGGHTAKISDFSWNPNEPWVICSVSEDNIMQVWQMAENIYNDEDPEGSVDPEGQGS

IC50	Structure (SMILES)
1.12 µM	Cc1cc(C)c(CNC(=O)c2cc(C3=CCOCC3)cc(C3=CCOCC3)c2C)c(=O)[nH]1 [Example 42, 3,5-di-3,6-dihydro-2H-pyran-4-yl-N-[(4,6-dimethyl-2-oxo-1,2-dihydropyridin-3-yl)methyl]-2-methylbenz-amide]
1.34 µM	Cc1cc(C)c(CNC(=O)c2nc(N3CCC(N)CC3)nc(-c3ccnn3C)c2C)c(=O)[nH]1 [Example 43, 2-(4-aminopiperidin-1-yl)-N-[(4,6-dimethyl-2-oxo-1,2-dihydropyridin-3-yl)methyl]-5-methyl-6-(1-methyl-1H-pyrazol-5-yl)pyrimidine-4-carboxamide]
1.41 µM	Cc1cc(C)c(CNC(=O)c2nc(-c3cncnc3)nc(N3CCC[C@@H]3C)c2C)c(=O)[nH]1 [Example 44, N-[(4,6-dimethyl-2-oxo-1,2-dihydropyridin-3-yl)methyl]-5-methyl-6-[(2S)-2-methylpyrrolidin-1-yl]-2,5′-bipyrimidine-4-carboxamide]
1.53 µM	Cc1cc(C)c(CNC(=O)c2nc(-c3ccc(N)nc3)nc(N3CCC[C@@H]3C)c2C)c(=O)[nH]1 [Example 45, 2-(6-aminopyridin-3-yl)-N-[(4,6-dimethyl-2-oxo-1,2-dihydropyridin-3-yl)methyl]-5-methyl-6-[(2S)-2-methylpyrrolidin-1-yl]pyrimidine-4-carboxamide]
1.7 µM	CNc1ncc(-c2nc(C(=O)NCc3c(C)cc(C)[nH]c3=O)c(C)c(-c3ccnn3C)n2)cn1 [Example 47, N-[(4,6-dimethyl-2-oxo-1,2-dihydropyridin-3-yl)methyl]-5-methyl-2′-(methylamino)-6-(1-methyl-1H-pyrazol-5-yl)-2,5′-bipyrimidine-4-carboxamide]
1.95 µM	Cc1cc(C)c(CNC(=O)c2cc(Cl)cc(-n3ncnc3C)c2C)c(=O)[nH]1 [Example 49, 5-chloro-N-[(4,6-dimethyl-2-oxo-1,2-dihydropyridin-3-yl)methyl]-2-methyl-3-(5-methyl-1H-1,2,4-triazol-1-yl)benzamide]
2.11 µM	Cc1cc(C)c(CNC(=O)c2nc(-c3cnc(N(C)C)nc3)nc(-c3ccnn3C)c2C)c(=O)[nH]1 [Example 51, 2′-(dimethylamino)-N-[(4,6-dimethyl-2-oxo-1,2-dihydropyridin-3-yl)methyl]-5-methyl-6-(1-methyl-1H-pyrazol-5-yl)-2 ,5′-bipyrimidine-4-carboxamide]
2.46 µM	Cc1cc(C)c(CNC(=O)c2cc(Cl)cc(-n3nnnc3C)c2C)c(=O)[nH]1 [Example 52, 5-chloro-N-[(4,6-dimethyl-2-oxo-1,2-dihydropyridin-3-yl)methyl]-2-methyl-3-(5-methyl-1H-tetrazol-1-yl)benzamide]
2.52 µM	Cc1cc(C)c(CNC(=O)c2ncnc(N3CCCC3C(F)(F)F)c2C)c(=O)[nH]1 (stereo not shown) [Example 53, N-[(4,6-dimethyl-2-oxo-1,2-dihydropyridin-3-yl)methyl]-5-methyl-6-[2-(trifluoromethyl)pyrrolidin-1-yl]pyrimidine-4-carboxamide]
2.83 µM	Cc1cc(C)c(CNC(=O)c2nc(C3CC3)nc(N3CCC[C@@H]3C)c2C)c(=O)[nH]1 [Example 54, 2-cyclopropyl-N-[(4,6-dimethyl-2-oxo-1,2-dihydropyridin-3-yl)methyl]-5-methyl-6-[(2S)-2-methylpyrrolidin-1-yl]pyrimidine-4-carboxamide]
2.89 µM	Cc1cc(C)c(CNC(=O)c2nc(N3[C@@H]4CC[C@H]3COC4)nc(N3CCC[C@@H]3C)c2C)c(=O)[nH]1 [Example 55, N-[(4,6-dimethyl-2-oxo-1,2-dihydropyridin-3-yl)methyl]-5-methyl-6-[(2S)-2 - methylpyrrolidin-1-yl]-2-[(1R,5S)-3-oxa-8-azabicyclo[3.2.1]oct-8-yl]pyrimidine-4-carboxamide]
3.18 µM	Cc1cc(C)c(CNC(=O)c2nc(N3C[C@@H]4[C@@H](N)[C@@H]4C3)nc(-c3ccnn3C)c2C)c(=O)[nH]1 [Example 56, 2-[(1R,5S,6S)-6-amino-3-azabicyclo[3.1.0]hex-3-yl]-N-[(4,6-dimethyl-2-oxo-1,2-dihydropyridin-3-yl)methyl]-5-methyl-6-(1-methyl-1H-pyrazol-5-yl)pyrimidine-4-carboxamide]
3.2 µM	Cc1cc(C)c(CNC(=O)c2nc(OC(C)C)nc(N3CCC[C@@H]3C)c2C)c(=O)[nH]1 [Example 57, N-[(4,6-dimethyl-2-oxo-1,2-dihydropyridin-3-yl)methyl]-2-isopropoxy-5-methyl-6-[(2S)-2 - methylpyrrolidin-1-yl]pyrimidine-4-carboxamide]
3.52 µM	Cc1cc(C)c(CNC(=O)c2nc(N3C[C@@H]4C[C@H]3CO4)nc(N3CCC[C@@H]3C)c2C)c(=O)[nH]1 [Example 58, N-[(4,6-dimethyl-2-oxo-1,2-dihydropyridin-3-yl)methyl]-5-methyl-6-[(2S)-2 - methylpyrrolidin-1-yl]-2-[(1S,4S)-2-oxa-5-azabicyclo[2.2.1]hept-5-yl]pyrimidine-4-carboxamide]
3.91 µM	Cc1cc(C)c(CNC(=O)c2ncnc(N3CCCC3(C)C)c2C)c(=O)[nH]1 [Example 59, N-[(4,6-dimethyl-2-oxo-1,2-dihydropyridin-3-yl)methyl]-6-(2,2-dimethylpyrroli-din-1-yl)-5-methylpyrimidine-4-carboxamide]
4.21 µM	CCc1nncn1-c1cc(Cl)cc(C(=O)NCc2c(C)cc(C)[nH]c2=O)c1C [Example 61, 5-chloro-N-[(4,6-dimethyl-2-oxo-1,2-dihydropyridin-3-yl)methyl]-3-(3-ethyl-4H-1,2,4-triazol-4-yl)-2-methylbenz-amide]
4.22 µM	Cc1cc(C)c(CNC(=O)c2cc(Cl)cc(-n3c(C)nnc3C)c2C)c(=O)[nH]1 [Example 62, 5-chloro-N-[(4,6-dimethyl-2-oxo-1,2-dihydropyridin-3-yl)methyl]-3-(3,5-dimethyl-4H-1,2,4-triazol-4-yl)-2-methylbenz-amide]
4.38 µM	Cc1cc(C)c(CNC(=O)c2cc(Cl)cc(-n3nccc3C)c2C)c(=O)[nH]1 [Example 63, 5-chloro-N-[(4,6-dimethyl-2-oxo-1,2-dihydropyridin-3-yl)methyl]-2-methyl-3-(5-methyl-1H-pyrazol-1-yl)benzamide]
4.42 µM	Cc1cc(C)c(CNC(=O)c2cccc(-c3c(C)ncnc3C)c2C)c(=O)[nH]1 [Example 64, N-[(4,6-dimethyl-2-oxo-1,2-dihydropyridin-3-yl)methyl]-3-(4,6-dimethylpyrimi-din-5-yl)-2-methylbenz-amide]
5.19 µM	COC1CCN(c2nc(C(=O)NCc3c(C)cc(C)[nH]c3=O)c(C)c(-c3ccnn3C)n2)CC1 [Example 68, N-[(4,6-dimethyl-2-oxo-1,2-dihydropyridin-3-yl)methyl]-2-(4-methoxypiperi-din-1-yl)-5-methyl-6-(1-methyl-1H-pyrazol-5-yl)pyrimidine-4-carboxamide]
5.19 µM	Cc1cc(C)c(CNC(=O)c2ccnc(N3CCC[C@@H]3C)c2Cl)c(=O)[nH]1 [Example 69, 3-chloro-N-[(4,6-dimethyl-2-oxo-1,2-dihydropyridin-3-yl)methyl]-2-[(2S)-2-methylpyrroli-din-1-yl]isonicotinamide]
5.21 µM	Cc1cc(C)c(CNC(=O)c2cccc(-c3c(C)nn(C)c3C)c2C)c(=O)[nH]1 [Example 70, N-[(4,6-dimethyl-2-oxo-1,2-dihydropyridin-3-yl)methyl]-2-methyl-3-(1,3,5-trimethyl-1H-pyrazol-4-yl)benzamide]
6.33 µM	Cc1cc(C)c(CNC(=O)c2ncnc(N3CCC[C@@H]3C)c2C)c(=O)[nH]1 [Example 71, N-[(4,6-dimethyl-2-oxo-1,2-dihydropyridin-3-yl)methyl]-5-methyl-6-[(2S)-2-methylpyrroli-din-1-yl]pyrimidine-4-carboxamide]
6.37 µM	CSc1nc(C(=O)NCc2c(C)cc(C)[nH]c2=O)c(C)c(-c2ccnn2C)n1 [Example 72, N-[(4,6-dimethyl-2-oxo-1,2-dihydropyridin-3-yl)methyl]-5-methyl-6-(1-methyl-1H-pyrazol-5-yl)-2-(methylthio) pyrimidine-4-carboxamide]
6.5 µM	Cc1cc(C)c(CNC(=O)c2ncnc(N3CCC(C)(C)C3)c2C)c(=O)[nH]1 [Example 73, N-[(4,6-dimethyl-2-oxo-1,2-dihydropyridin-3-yl)methyl]-6-(3,3-dimethylpyrroli-din-1-yl)-5-methylpyrimi-dine-4-carboxamide]
